The values that follow come from PMC4026384, “Antibacterial Activity of THAM Trisphenylguanide against Methicillin-Resistant Staphylococcus aureus” (PLoS ONE, 2014).

≈ marks a conversion by molar mass, not a printed value. Where two headings read alike, the source gives them in different places.

Assay [1] concerns Acinetobacter baumannii ATCC 19606. The assay can be described thus: Minimum inhibitory concentration (microdilution). The assay is classed as cell-based. The conditions noted are these: Acinetobacter baumannii, ATCC19606; A. baumannii ATCC 19606; LB media; median of at least 3 determinations; read-out: MIC. The protocol:
(§1) Minimum inhibitory concentration (MIC) values were determined for those compounds showing the most antibacterial activity in the bacterial viability assays (see Supplemental Materials) against each of the strains of bacteria using a microdilution method in 96 well plates with LB media according to guidelines published by the British Society for Antimicrobial Chemotherapy. Minimum bactericidal concentrations (MBC) were determined by plating 10 µL and 100 µL from each well showing no signs of growth after overnight incubation of the MIC plates and determining the minimum concentration showing a 3-log reduction of viable bacteria. MIC and MBC were also determined in cation-adjusted Mueller-Hinton broth (Hardy Diagnostics, Santa Maria, CA) for some compounds and strains.
In general terms: Dilution methods test growth across graded concentrations, often in twofold steps.

In assay [2] the test system is Acinetobacter baumannii ATCC BAA1605. The assay can be described thus: Minimum inhibitory concentration (microdilution). In kind it is cell-based. The conditions noted are these: ATCCBAA1605, A. baumannii ATCC BAA1605, LB media, median of at least 3 determinations. The protocol:
as §1

Assay [3] has as its system Escherichia coli (strain K91). The assay can be described thus: Minimum inhibitory concentration (microdilution). The conditions noted are these: E. coli K91. The assay is classed as cell-based. The procedure:
as §1

Assay [4] has as its system Pseudomonas aeruginosa (strain PA01). Description: Minimum inhibitory concentration (microdilution). The conditions noted are these: Pseudomonas aeruginosa; P. aeruginosa PA01; LB media; median of at least 3 determinations; read-out: MIC. The assay is classed as cell-based. The protocol:
as §1

The test system of assay [5] is Staphylococcus aureus RN4220. The assay can be described thus: Minimum inhibitory concentration (microdilution). Conditions: S. aureus RN4220. In kind it is cell-based. The procedure:
as §1

The test system of assay [6] is MRSA strain LAC, USA300. The assay can be described thus: Minimum inhibitory concentration (microdilution). In kind it is cell-based, Staphylococcus aureus. The protocol:
as §1

In assay [7] the test system is MRSA strain LAC, USA300. The assay can be described thus: Minimum bactericidal concentration. In kind it is cell-based, Staphylococcus aureus. Conditions: MHB, median, 3-log reduction of viable bacteria. The procedure: as §1
Assay [8] concerns E. coli K91. The assay can be described thus: Bacterial viability assay. The conditions noted are these: Escherichia coli, 1 h, one hour in PBS, CFU, ± SEM. The assay is classed as cell-based, Escherichia coli. The protocol:
(§2) Supplementary file pone.0097742.s003.doc: Table S1 Bacterial viability assays. Bacteria were grown at 37°C to mid-log phase (OD600 ∼0.4). The bacteria were diluted to approximately 10^4 to 10^5 colony forming units (CFU) per milliliter and added to a solution of phosphate buffered saline (PBS, 16 mM phosphate, 0.14 M NaCl, pH 7.2) containing the compound at varied concentrations. Samples were incubated at 37°C for one hour and then plated on Luria Bertani (LB) agar at appropriate dilutions in PBS. The plates were incubated overnight at 37°C and colonies enumerated the following day. IC50s were calculated from graphs of CFU as a function of compound concentration. Chlorhexidine was used as a positive control. […] (DOC) Click here for additional data file.
(§3) Bacterial viability assays. Bacteria were grown at 37°C to mid-log phase (OD600 ~0.4). The bacteria were diluted to approximately 10^4 to 10^5 colony forming units (CFU) per milliliter and added to a solution of phosphate buffered saline (PBS, 16 mM phosphate, 0.14 M NaCl, pH 7.2) containing the compound at varied concentrations. Samples were incubated at 37°C for one hour and then plated on Luria Bertani (LB) agar at appropriate dilutions in PBS. The plates were incubated overnight at 37°C and colonies enumerated the following day. IC50s were calculated from graphs of CFU as a function of compound concentration. Chlorhexidine was used as a positive control.

Assay [9] deals with P. aeruginosa PA01. The assay can be described thus: Bacterial viability assay. In kind it is cell-based, Pseudomonas aeruginosa. The conditions noted are these: Pseudomonas aeruginosa, 1 h, one hour in PBS, CFU, ± SEM. The procedure:
as §2, §3

The test system of assay [10] is S. aureus RN4220. The assay can be described thus: Bacterial viability assay. In kind it is cell-based, Staphylococcus aureus. Conditions: Staphylococcus aureus, 1 h, one hour in PBS, CFU, ± SEM. The procedure: (§4) Supplementary file pone.0097742.s003.doc: Table S1 Bacterial viability assays. Bacteria were grown at 37°C to mid-log phase (OD600 ∼0.4). The bacteria were diluted to approximately 10^4 to 10^5 colony forming units (CFU) per milliliter and added to a solution of phosphate buffered saline (PBS, 16 mM phosphate, 0.14 M NaCl, pH 7.2) containing the compound at varied concentrations. Samples were incubated at 37°C for one hour and then plated on Luria Bertani (LB) agar at appropriate dilutions in PBS. The plates were incubated overnight at 37°C and colonies enumerated the following day. IC50s were calculated from graphs of CFU as a function of compound concentration. Chlorhexidine was used as a positive control. Included are those guanide (G), biguanide (BG), phenylguanide (ΦG) compounds that had some antibacterial activity in an initial screen at 30 and 100 µM, as well as their and parent amines. Compounds synthesized from 1,4-butanediamine, 1,6-hexanediamine, trisethylaminomelamine, trisbutylaminomelamine, and the dendrimer PAMAM (G0) were not active against E. coli, P aeruginosa, or S. aureus so they were not tested against the remaining bacteria (data not shown). (DOC) Click here for additional data file.
as §4, with “Bacterial” for “Supplementary file pone.0097742.s003.doc: Table S1 Bacterial”, “~0.4).” for “∼0.4).”, “μM,” for “µM,”, “shown).” for “shown). (DOC) Click here for additional data file.”

The subject of assay [11] is MRSA. The assay can be described thus: Time-to-kill (kill curve) assay. In kind it is cell-based, Staphylococcus aureus. The procedure:
(§5) Bacteria were cultured to mid-log phase (OD600 ∼0.4) in LB media with shaking and then diluted to approximately 10^4 to 10^5 CFU/mL. Bacteria were then treated with compound at the MIC, 2×MIC, and 4×MIC (as determined by the MIC assays). Over the course of 24 hours, bacteria were incubated at 37°C and aliquots removed at various time intervals, diluted, and plated on LB agar. Plated bacteria were incubated overnight at 37°C and CFU/mL were calculated for each time interval.

Assay [12] has as its system E. coli. The assay can be described thus: Time-to-kill (kill curve) assay. In kind it is cell-based, Escherichia coli. The protocol:
as §5

The mark [13] stands for this setting: Escherichia coli, LB media, median of at least 3 determinations, read-out: MIC.
Where [14] appears, read: Staphylococcus aureus, LB media, median of at least 3 determinations, read-out: MIC.
The mark [15] stands for this setting: Staphylococcus aureus, MRSA USA300, LB media, median of at least 3 determinations, read-out: MIC.

`[H]/N=C(\N/C(=N/[H])NCCCCCCNC(=N)NC(=N)Nc1ccc(Cl)cc1)Nc1ccc(Cl)cc1` [Chlorhexidine, chlorhexidine, reference compound]: the MIC (commonly the lowest concentration found to suppress growth) is 16 µg/mL (≈ 31.7 µM) in assay [1]; 16 µg/mL (≈ 31.7 µM) in [2]; 0.44 µg/mL (≈ 0.87 µM) in assay [3] (MHB, median); 1 µg/mL (≈ 1.98 µM) in [3] (setting [13]); 8 µg/mL (≈ 15.8 µM) in [4]; 0.89 µg/mL (≈ 1.76 µM) in assay [5] (MHB, median). Also, the MIC in assay [5] (setting [14]) is 1 µg/mL (≈ 1.98 µM); in assay [6] (MRSA USA300, MHB, median), 0.67 µg/mL (≈ 1.33 µM); in assay [6] (setting [15]), 1 µg/mL (≈ 1.98 µM). Besides, the minimum bactericidal concentration (MBC) (usually the lowest tested concentration that kills the bacteria rather than only halting them) in assay [7] worked out at 0.89 µg/mL (≈ 1.76 µM). The IC50 (commonly the point on the concentration scale where inhibition reaches its midpoint) in [8] was determined as 1700 ± 600 nM; in assay [9], 2.6 ± 0.5 µM; in [10], 860 ± 210 nM. In addition, the “time by which bactericidal activity was seen” value in assay [11] (1× to 4×MIC) is at most 24 h. Moreover, the “time after which no viable cells remained” value in [12] (2 mg/L) came to 6 h. In addition, in assay [12] (2 mg/L, within 4 hours of treatment), the “reduction in CFU/mL” value is on record as over 3 log.
For `N=C(NCCCCCCNc1nc(NCCCCCCNC(=N)Nc2ccccc2)nc(NCCCCCCNC(=N)Nc2ccccc2)n1)Nc1ccccc1` [THAM-3ΦG, Trishexylaminomelamine trisphenylguanide], the MIC is over 256 µg/mL in [1]; over 256 µg/mL in [2]; 8 µg/mL (≈ 10.3 µM) in [3] (MHB, median); 8 µg/mL (≈ 10.3 µM) in assay [3] (setting [13]); 48 µg/mL (≈ 61.7 µM) in assay [4]; 1 µg/mL (≈ 1.29 µM) in assay [5] (MHB, median). Further, the MIC was 2 µg/mL (≈ 2.57 µM) in assay [5] (setting [14]); 1 µg/mL (≈ 1.29 µM) in assay [6] (MRSA USA300, MHB, median); 2 µg/mL (≈ 2.57 µM) in assay [6] (setting [15]); about 1 µg/mL (≈ 1.29 µM) in assay [6] (Staphylococcus aureus, against MRSA, as stated in the abstract, read-out: MIC). Besides, in assay [7], the MBC was 1 µg/mL (≈ 1.29 µM). Besides, the IC50 in assay [8] amounted to 3800 ± 1600 nM; in assay [9], 4.5 ± 2.5 µM; in assay [10] it was 1700 ± 900 nM. Also, the “reduction in CFU/mL” value in [11] (4×MIC, within 4 hours post treatment) was 3 log; in assay [12] (4×MIC (32 mg/L), only after 4 hours of treatment), over 3 log. The “time after which no viable cells remained” value in assay [11] (at the MIC) turned out to be 24 h. Besides, the “time to kill all the cells” value in assay [12] (4×MIC (32 mg/L)) is 24 h.
